Reference: patent publication US10206944B2, “Chondroitin for use in medicine” (ALTERGON S.A., priority 2012, dated 2019)

Experiments:
Collagen Type II = assay: Real-Time PCR gene expression in human chondrocytes: type II collagen; assay type: cell-based; conditions: 1% w/v, ratio to untreated control
Experimental: (§1) To evaluate the biological effects of chondroitin on human chondrocyte cultures, the expression of a set of genes considered key to establishing the phenotype, and suitable markers for evaluating the quality of the tissue generated, was determined. The study was conducted on chondrocytes prepared from human cartilage, as reported in Example 2, the cells being grown in the presence of chondroitin or chondroitin sulphate. Using a standard procedure, 5*10^4 cells per well were seeded in a 24-well multiwell plate. The chondrocytes were grown in DMEM containing 1% w/v of chondroitin or chondroitin sulphate (endotoxin content ≤0.1 EU/mg). The cells were stimulated for 4, 7 and 10 days (Ishak et al., International J. of Pediatric Otorhinolaryngology, 2011, 75: 835-840), after which the RNA was extracted with Trizol Reagent, as described in the kit manual (Life Technologies Ltd, Milan, Italy). A qualitative morphological analysis of the cell culture was also conducted at the various times, in parallel with RNA extraction, by observing the corresponding samples at 4, 7 and 10 days under the optical microscope. The cells seeded at the three different times were observed under the microscope, and the images that best represented the cell growth conditions were acquired using a time-lapse videomicroscopy workstation. After RNA extraction, reverse transcription was performed with a total of 1 μg RNA and then with amplification by Real-Time PCR of genes which are specific markers for chondrocytes (Table 3).
(§2) Genes connected with matrix production, such as aggrecan, type I collagen, type II collagen and the Sox9 gene, the expression of which is closely correlated with the expression of type II collagen, were analysed as specific markers for differentiation and characterisation of chondrocytes. (Akiyama H., Mod Rheumatol., 2008, 18(3): 213-9; Yang et al., J. of Orthopaedic Res. 2011).
(§3) The gene expression of said markers on human chondrocytes cultured in basic medium (control) and with chondroitin treatment (C) or chondroitin sulphate treatment (CS) was analysed on cell cultures in the second and third growth phases.
(§4) The results of the gene expression analysis were reported as the average of at least 3 independent experiments for tests conducted in the presence of C or CS, on cells in phases 2 and 3.

Collagen Type I = assay: Real-Time PCR gene expression in human chondrocytes: type I collagen; assay type: cell-based; conditions: for Fold Expression, Collagen Type I: 1% w/v, ratio to untreated control
Experimental: as §1, §2, §3, §4

HaCat cells = assay: Wound-healing test by time-lapse microscopy (keratinocyte growth); assay type: cell-based, human; conditions: for time to wound repair (closure of the cut): HaCat confluent layer with cut, time-lapse, control closes after 40 h; for effect on the repair process: concentration of 0.1 w/v
Experimental: HaCat cells, an immortalised cell line of human keratinocytes, are used as model system. The HaCat cells are grown and amplified in Dulbecco's Modified Eagle Medium (DMEM) containing 10% foetal bovine serum (FBS)+1% Pen-Strep solution (10,000 units of penicillin-G/mL and 10 mg of streptomycin/mL in saline solution) in an incubator for cell cultures (37° C., 5% CO2 in humid air). The wound-healing experiments are conducted by time-lapse optical microscopy, a technique that allows cell behaviour to be monitored for lengthy times (2-4 days) in terms of adhesion, proliferation and motility. The system consists of an inverted optical microscope (Zeiss Axiovert 200), a thermostatic bath (LAUDA Ecoline), a CO2 microincubator with geometry such as to house plates of variable dimensions (from 6 to 96 wells), and a control unit for the output gases (air and CO2). The instrument is also equipped with a digital video camera and a control motor, which allows the incubator to move along directions x, y and z so that the images selected by the operator can be recorded and acquired at pre-set intervals.
The system thus assembled allows the cells to be maintained in an environment that reproduces the optimum conditions for cell growth (atmosphere with 5% v/v of CO2 in humid air and temperature of 37±0.1° C.), and monitored throughout the experiment. The system is also equipped with software which allows accurate analysis of the images. In particular, the instrumentation is equipped with automated software which allows wound repair to be calculated in wound-healing tests and provides data about the repair rate and cell migration rate, which are important parameters for evaluating the biorevitalising effect of substances that can accelerate or inhibit wound repair in vitro. […]

Sprague Dawley rats = assay: Subacute toxicity study, 30 days; assay type: in vivo, rat
Experimental: Subacute toxicity study—The study was performed on the rat by administering chondroitin orally (p.o.) and intramuscularly (i.m.). For each of the two studies the animals (Sprague Dawley rats) were divided into 4 groups formed by 15 males and 15 females; chondroitin at the concentration of 50, 100 and 200 mg/Kg respectively was administered to the first 3 groups, and the carrier alone to the fourth group; the administration volume was 10 mL/Kg for p.o. administration and 5 mL/Kg for i.m. administration. Daily administration continued for 30 days. The doses used represent up to 20 times the human therapeutic dose. The general state of health and behaviour of the treated animals were monitored daily, and weight variations, haematological status and urine were evaluated every 5 days. […] At the end of the study all animals were euthanized and an autopsy and histopathological analysis of the main organs (lungs, heart, liver, ovaries, uterus, testicles, kidneys and pituitary gland) were conducted. None of these evaluations indicated any significant differences between the animals treated with chondroitin and the control animals which received the carrier alone.

Substance	Fold Expression, Collagen Type II (Collagen Type II; phase II, 4 g)	Fold Expression, Collagen Type II (Collagen Type II; phase II, 7 g)	Fold Expression, Collagen Type II (Collagen Type II; phase II, 10 g)	Fold Expression, Collagen Type II (Collagen Type II; phase III, 4 g)	Fold Expression, Collagen Type II (Collagen Type II; phase III, 10 g)	Fold Expression, Collagen Type I (Collagen Type I; phase II, 4 g)	Fold Expression, Collagen Type I (Collagen Type I; phase II, 7 g)	Fold Expression, Collagen Type I (Collagen Type I; phase II, 10 g)	Fold Expression, Collagen Type I (Collagen Type I; phase III, 4 g)	Fold Expression, Collagen Type I (Collagen Type I; phase III, 7 g)	Fold Expression, Collagen Type I (Collagen Type I; phase III, 10 g)	time to wound repair (closure of the cut) (HaCat cells)	effect on the repair process (HaCat cells)	Fold Expression, Collagen Type II (Collagen Type II; phase III, 7 g)	subacute toxicity, conclusion (Sprague Dawley rats; rat, 50, 100 and 200 mg/Kg p.o. and i.m., 30 days)	No toxicity (dose), subacute 30 days (Sprague Dawley rats; rat, p.o. and i.m., daily for 30 days)	reduction in expression of type I collagen (Collagen Type I; growth phase 2, long incubation times, versus control)
chondroitin sulphate [CS, reference compound]	2.8 ± 0.75	1.25 ± 0.45	0.58 ± 0.29	0.50 ± 0.01	0.8 ± 0.45	1.20 ± 0.56	1.44 ± 0.08	1.36 ± 0.05	0.34 ± 0.01	2.42 ± 0.88	1.09 ± 0.45	> 70 h	slows it				
chondroitin	2.70 ± 0.32	2.4 ± 0.43	2.56 ± 0.75	1.69 ± 0.20	2.3 ± 0.16	1.23 ± 0.29	1.03 ± 0.52	0.67 ± 0.20	0.24 ± 0.01	0.85 ± 0.49	0.59 ± 0.13	less than 20 h	accelerates the repair process	2.62 ± 0.47	non-toxic at the doses used	No toxicity >200 mg/kg/day p.o. and i.m.	30%
